# Reference: paper PMC9569790, “From Solution Studies of Pharmaceuticals (Aspirin and Related Compounds) to the Thermodynamics of Aspirin-β-Cyclodextrin Interaction in water and N,N-Dimethylformamide” (International Journal of Molecular Sciences, 2022)
# Where two headings read alike, the source gives them in different places. Marks after values point to notes of the source that are not given here.
# How the values were obtained:
# [1] = Conductance measurements in water; assay type: physicochemical; conditions: for Ionic conductivity at infinite dilution of the anion, λA^−: from Λ^0m and λH^+ = 349.8
# [2] = Calorimetric enthalpies of solution in water; assay type: physicochemical; conditions: 298.15 K; for ΔsH^0, standard enthalpy of solution: average of the ΔsH values
# Excerpt: No measurements could be carried out at higher concentrations since the dissolution rate of this compound in water was relatively slow. […] Since there were no systematic changes in the ΔsH values with changes in the concentration of solute, the standard ΔsH^0 value reported in Table 3 is the average value. In the dissolution of a solute in water or any other solvent, there are two processes involved, as described in Equation (5):ΔsH^0 = ΔclH^0 + ΔsolvH^0(5)
# (§1) The reliability of the calorimeter was checked by carrying out the standard reaction based on the protonation of an aqueous solution of tris-(hydroxymethyl)aminomethane (THAM) with an aqueous solution of hydrochloric acid (0.1 mol dm^−3) at 298.15 K (Equation (11)). H2NC(CH2OH)3(aq) + H3O+ (aq) → H3N+C(CH2OH)3(aq) + H2O(aq)(11)
# (§2) The system was then placed in a water bath until thermal equilibrium was attained, after which the ampoule was broken into the solvent and the process was monitored by the chart recorder. The observed heat was corrected for the heat of the breaking of the empty ampoule in the solvent. The standard enthalpy of the solution, ∆sH^0, was found from […].
# [3] = Calorimetric enthalpies of solution in DMF; assay type: physicochemical; conditions: 298.15 K; for ΔsH^0, standard enthalpy of solution: average of the ΔsH values
# Excerpt: All observed heats were corrected for the heat from breaking the empty ampoules in DMF (Q = −0.0518 J). Since there were no systematic changes in the ΔsH values with changes in the concentration of the solute, the reported standard ΔsH^0 values are the average values of the data reported in Table 5. This table also includes the standard deviations of the data.
# as §1, §2
# [4] = Solvate formation test in a solvent-saturated atmosphere; assay type: physicochemical; conditions: water
# Method: (§3) The mixtures were left in a thermostatic bath at 298.15 K until equilibrium was reached. Aliquots of the saturated solutions were removed and analyzed gravimetrically by taking a known volume of sample, evaporating the solvent and then weighing the solid in a dry atmosphere. The weighing process was repeated until a constant weight was obtained. The analytical determination was carried out in triplicate on the same equilibrium mixture. Solvate formation was tested by storing the compounds over water or DMF in a desiccator containing an atmosphere saturated with the appropriate solvent over a period of at least four days.
# [5] = Solubility measurements (gravimetric analysis of saturated solutions) in water; assay type: physicochemical
# Method: as §3
# [6] = Conductance measurements in DMF; assay type: physicochemical; conditions: 298.15 K
# [7] = Gibbs free energy and entropies of solution in water, corrected for ion-pair formation; assay type: physicochemical; conditions: 298.15 K; for pKsp: corrected for ion-pair formation; for ΔsG^0, standard Gibbs energy of solution: standard state 1 mol dm^−3
# Excerpt: In Equation (2), concentrations are in mol dm^−3, and γ ± i^2 is the mean molar ionic coefficient calculated by the use of the Debye–Hückel equation, where γHA is the activity coefficient of the un-ionized species. In very dilute solutions, γHA may be considered equal to unity. As far as the standard Gibbs energy of the solution in the standard state of 1 mol dm^−3, ∆sG^0, is concerned, the application of Equation (3) requires knowledge of the ion-pair formation constant in solution. The availability of Kip and solubilities in water allows the calculation the ionic molar concentration, ci, and the molar concentration of ion pairs, cip, as previously shown. The data refer to the standard state (1 mol dm^−3). ΔsG^0= −RTln (ci^2 * γ±i^2)(3)
# In Equation (6), aH^+ and aA^− represent the activities of the species H^+ and A^− in solution respectively. The activity of the solid is unity by convention. The activity, a, on the molar scale (mol dm^−3) is related to the ionic molar concentration, ci, by the mean molar ionic activity coefficient, γ ± i.
# Thus:K^0sp = ci^2 ∗ γ ± i^2 (7)
# The availability of Gibbs energy (Equation (3)) and enthalpy values allows the calculation of the entropy of solution, ΔsS. For this purpose, the following equation was used.
# [8] = design: method as in PMID 16509753; conditions: water, 298 K, cited from earlier work
# [9] = Transfer thermodynamic parameters from water to DMF; assay type: physicochemical; conditions: 298.15 K
# Excerpt: As mentioned earlier, ΔsH^0 is made by the contribution of the crystal lattice enthalpy and the solvation enthalpy. In order to remove the contribution of the crystal lattice process, it is a common practice to calculate the transfer thermodynamic parameters according to the following process: […]
# [10] = water; cited from earlier work
# [11] = Interaction of acetylsalicylic acid with β-cyclodextrin in DMF (titration calorimetry); assay type: binding; conditions: nonionized guest, 298 K
# [12] = water, cited from earlier work
# [13] = water, same temperature, conductimetry; cited from earlier work
structure (smiles),measurement,setting,value
CC(=O)c1ccc(O)c(C(=O)O)c1 [5-acetylsalicylate],"Ionic conductivity at infinite dilution of the anion, λA^−","[1]; water, 298.15 K",39.2 S cm^2 mol^−1
CC(=O)Oc1ccccc1C(=O)O [acetylsalicylate],"Ionic conductivity at infinite dilution of the anion, λA^−","[1]; water, 298.15 K",42.2 S cm^2 mol^−1
"CC(=O)Oc1ccccc1C(=O)O [acetylsalicylic acid, reference compound]","ΔsH^0, standard enthalpy of solution",[2]; listed as Acetylsalicylic Acid,ΔsH^0 = 11.1 ± 0.6 kJ mol^−1
same,"ΔsH^0, standard enthalpy of solution",[2]; listed as Acetylsalicylic acid,2.65 kcal/mol
same,"ΔsH, enthalpy of solution",[2]; c = 2.40 × 10^−4 mol dm^−3,2.823 kcal/mol
same,"ΔsH, enthalpy of solution",[2]; c = 3.51 × 10^−4 mol dm^−3,2.5 kcal/mol
same,"ΔsH, enthalpy of solution",[2]; c = 4.66 × 10^−4 mol dm^−3,2.44 kcal/mol
same,"ΔsH, enthalpy of solution",[2]; c = 5.13 × 10^−4 mol dm^−3,2.646 kcal/mol
same,"ΔsH, enthalpy of solution",[2]; c = 5.26 × 10^−4 mol dm^−3,2.686 kcal/mol
same,"ΔsH, enthalpy of solution",[2]; c = 5.99 × 10^−4 mol dm^−3,2.799 kcal/mol
same,"ΔsH^0, standard enthalpy of solution",[3],1.86 ± 0.048 kcal/mol
same,"ΔsH, enthalpy of solution",[3]; c = 1.10 × 10^−3 mol dm^−3,1.79 kcal/mol
same,"ΔsH, enthalpy of solution",[3]; c = 1.48 × 10^−3 mol dm^−3,1.8 kcal/mol
same,"ΔsH, enthalpy of solution",[3]; c = 5.74 × 10^−4 mol dm^−3,1.96 kcal/mol
same,"ΔsH, enthalpy of solution",[3]; c = 6.42 × 10^−4 mol dm^−3,1.87 kcal/mol
same,"ΔsH, enthalpy of solution",[3]; c = 8.62 × 10^−4 mol dm^−3,1.84 kcal/mol
same,"ΔsH, enthalpy of solution",[3]; c = 9.10 × 10^−4 mol dm^−3,1.87 kcal/mol
same,Solvate formation,[4],not detected
same,"Solubility, S",[5],(2.20 ± 0.28) ∗ 10^−2 mol dm^−3
same,Speciation in solution from conductance,[6],undissociated
same,"ΔsS^0, entropy of solution",[7],−67 J K^−1 mol^−1
same,pKsp,[7],5.45
same,"ΔsG^0, standard Gibbs energy of solution",[7],7.43 kcal/mol
same,log Kass,"[8]; pH 1.75, nonionized guest, calculated from Kass of ref 15",2.74 ^a
same,log Ks,"[8]; pH 6.00, ionized guest, calculated from Ks of ref 15",1.71 ^a
same,"ΔtH^0, enthalpy of transfer",[9],-0.789 kcal/mol
same,"Apparent enthalpy of solution (literature, van ’t Hoff equation)",[10],5.47 kcal/mol
same,"Ka, dissociation constant","[1]; water, 298.15 K",1.75 × 10^−4
same,"Kip, ion-pair formation constant","[1]; water, 298.15 K",57 × 10^2
same,"Λ^0m, molar conductance at infinite dilution","[1]; water, 298.15 K",392 S cm^2 mol^−1
same,Fraction hydrolyzed at the end of the conductance measurements,"[1]; water, estimated from data of Pierre and Jencks [25]",5%
same,log Kass,[11],4.66 ± 0.03 ^b
same,"Solubility (literature, molar scale)",[12]; 299.65 K,2.31 × 10^−2 mol dm^−3
same,Solubility (literature),[12],1.78 × 10^−2 mol/dm^−3
CC(=O)Oc1ccc(C(=O)O)cc1 [4-acetoxybenzoic acid],"ΔsH^0, standard enthalpy of solution",[2],4.78 kcal/mol
same,"ΔsH^0, standard enthalpy of solution",[2]; listed as 4-Acetoxybenzoic Acid,ΔsH^0 = 20 ± 1 kJ mol^−1
same,"ΔsH, enthalpy of solution",[2]; c = 4.51 × 10^−4 mol dm^−3,4.52 kcal/mol
same,"ΔsH, enthalpy of solution",[2]; c = 4.57 × 10^−4 mol dm^−3,4.381 kcal/mol
same,"ΔsH, enthalpy of solution",[2]; c = 4.66 × 10^−4 mol dm^−3,4.84 kcal/mol
same,"ΔsH, enthalpy of solution",[2]; c = 4.90 × 10^−4 mol dm^−3,4.902 kcal/mol
same,"ΔsH, enthalpy of solution",[2]; c = 6.17 × 10^−4 mol dm^−3,4.928 kcal/mol
same,"ΔsH, enthalpy of solution",[2]; c = 6.75 × 10^−4 mol dm^−3,5.017 kcal/mol
same,"ΔsH^0, standard enthalpy of solution",[3],0.932 ± 0.024 kcal/mol
same,"ΔsH, enthalpy of solution",[3]; c = 1.03 × 10^−3 mol dm^−3,0.93 kcal/mol
same,"ΔsH, enthalpy of solution",[3]; c = 1.18 × 10^−3 mol dm^−3,0.98 kcal/mol
same,"ΔsH, enthalpy of solution",[3]; c = 1.26 × 10^−3 mol dm^−3,0.949 kcal/mol
same,"ΔsH, enthalpy of solution",[3]; c = 1.60 × 10^−3 mol dm^−3,0.954 kcal/mol
same,"ΔsH, enthalpy of solution",[3]; c = 1.82 × 10^−3 mol dm^−3,0.908 kcal/mol
same,Solvate formation,[4],not detected
same,"ΔsS^0, entropy of solution",[7],−58 J K^−1 mol^−1
same,pKsp,[7],6.57
same,"ΔsG^0, standard Gibbs energy of solution",[7],8.96 kcal/mol
same,pKa (literature),[13],4.38
same,"ΔtH^0, enthalpy of transfer",[9],-3.85 kcal/mol
same,"Ka, dissociation constant","[1]; water, 298.15 K",4.55 × 10^−5
same,"Kip, ion-pair formation constant","[1]; water, 298.15 K",22 × 10^3
same,"Λ^0m, molar conductance at infinite dilution","[1]; water, 298.15 K",401 S cm^2 mol^−1
same,pKa,"[1]; water, 298.15 K, conductance, read-out: pKa",4.34
CC(=O)c1ccc(O)c(C(=O)O)c1 [5-acetylsalicylic acid],"ΔsH^0, standard enthalpy of solution",[2],6.74 kcal/mol
same,"ΔsH^0, standard enthalpy of solution",[2]; listed as 5-Acetylsalicylic Acid,ΔsH^0 = 28.2 ± 0.3 kJ mol^−1
same,"ΔsH, enthalpy of solution",[2]; c = 2.58 × 10^−4 mol dm^−3,6.862 kcal/mol
same,"ΔsH, enthalpy of solution",[2]; c = 2.66 × 10^−4 mol dm^−3,6.795 kcal/mol
same,"ΔsH, enthalpy of solution",[2]; c = 4.49 × 10^−4 mol dm^−3,6.74 kcal/mol
same,"ΔsH, enthalpy of solution",[2]; c = 6.67 × 10^−4 mol dm^−3,6.663 kcal/mol
same,"ΔsH, enthalpy of solution",[2]; c = 7.05 × 10^−4 mol dm^−3,6.807 kcal/mol
same,"ΔsH, enthalpy of solution",[2]; c = 8.05 × 10^−4 mol dm^−3,6.673 kcal/mol
same,"ΔsH^0, standard enthalpy of solution",[3],1.63 ± 0.048 kcal/mol
same,"ΔsH, enthalpy of solution",[3]; c = 1.11 × 10^−3 mol dm^−3,1.58 kcal/mol
same,"ΔsH, enthalpy of solution",[3]; c = 1.45 × 10^−3 mol dm^−3,1.59 kcal/mol
same,"ΔsH, enthalpy of solution",[3]; c = 1.76 × 10^−3 mol dm^−3,1.57 kcal/mol
same,"ΔsH, enthalpy of solution",[3]; c = 2.07 × 10^−3 mol dm^−3,1.59 kcal/mol
same,"ΔsH, enthalpy of solution",[3]; c = 2.18 × 10^−3 mol dm^−3,1.69 kcal/mol
same,"ΔsH, enthalpy of solution",[3]; c = 2.38 × 10^−3 mol dm^−3,1.66 kcal/mol
same,Solvate formation,[4],not detected
same,"Solubility, S",[5],(3.46 ± 0.22) ∗ 10^−3 mol dm^−3
same,"ΔsS^0, entropy of solution",[7],−15 J K^−1 mol^−1
same,pKsp,[7],5.74
same,"ΔsG^0, standard Gibbs energy of solution",[7],7.82 kcal/mol
same,"ΔtH^0, enthalpy of transfer",[9],-5.11 kcal/mol
same,pKa,[1],3.04
same,"Ka, dissociation constant","[1]; water, 298.15 K",9.09 × 10^−4
same,"Kip, ion-pair formation constant","[1]; water, 298.15 K",11 × 10^2
same,"Λ^0m, molar conductance at infinite dilution","[1]; water, 298.15 K",389 S cm^2 mol^−1
